Test results taken from patent publication US5624923A, “Tricyclic diazepine vasopressin antagonists and oxytocin antagonists” (priority 1995, dated 1997).

Legend:
Vasopressin V2 = Vasopressin V2 Antagonist Activity in Conscious Hydrated Rats; assay type: in vivo, rat; conditions: AVP 0.4 μg/kg i.p.
Method in brief: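 Four-hour urine output, osmolality and electrolytes (Na+, K+, Cl−) recorded in water-loaded rats (30 mL/kg deionized water orally) given AVP i.p. at 0.4 μg/kg. Test compounds were given orally at 0.1–100 mg/kg 1 h before AVP; 2–4 rats per compound.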

[1] = target: T1, Rat Kidney Medullary V2 Receptors (Rattus norvegicus, UniProt Q00788); test: Binding Assay to Rat Kidney Medullary V2 Receptors; conditions: for IC50: rat kidney medulla membranes, read-out: V2 IC50
T1 construct: Medullary tissues from rat kidneys are dissected out; from tissue; host or cells: rat kidney medulla membranes
T1 sequence (Q00788 whole entry): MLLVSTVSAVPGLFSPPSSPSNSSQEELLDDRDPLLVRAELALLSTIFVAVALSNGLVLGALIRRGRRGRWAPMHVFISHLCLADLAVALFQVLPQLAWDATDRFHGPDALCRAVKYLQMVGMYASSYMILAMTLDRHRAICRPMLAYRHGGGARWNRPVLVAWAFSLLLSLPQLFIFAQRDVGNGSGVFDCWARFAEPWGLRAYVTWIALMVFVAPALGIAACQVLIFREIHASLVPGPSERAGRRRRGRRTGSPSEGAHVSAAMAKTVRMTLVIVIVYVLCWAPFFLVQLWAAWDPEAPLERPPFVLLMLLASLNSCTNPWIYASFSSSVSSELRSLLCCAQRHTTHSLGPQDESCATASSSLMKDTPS
Method in brief: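 Membranes were prepared from rat kidney medulla and stored in 50.0 mM Tris-HCl pH 7.4 with 0.2% BSA and 0.1 mM PMSF. Radioligand competition ran 120 min at bench temperature, with 1.0 μM unlabeled ligand defining nonspecific binding. Compounds were added in 50% DMSO; filtration, tritium scintillation counting, IC50 from competition analysis.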

Vasopressin V1 = Vasopressin V1 Antagonist Activity in Conscious Rats (vasopressin vasopressor response); assay type: in vivo, rat; design: Average Change: unit not given here; conditions: for % Inhibition / Average Change: SHR
Method in brief: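 Conscious rats are restrained supine, and under local 2% procaine a PE 10/20 cannula is passed through the ventral caudal tail artery into the lower abdominal aorta. The caudal vein is cannulated for intravenous dosing. Blood pressure is recorded with a Statham P23Db transducer, and vasopressin injections are repeated after compound dosing. Percent antagonism is calculated against the pre-drug vasopressor response taken as 100%.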

[2] = 10 mg/kg i.v., VAS 0.01 i.u./kg, 30 min
[3] = 10 mg/kg i.v., VAS 0.01 i.u./kg, 60 min
[4] = 10 mg/kg i.v., VAS 0.01 i.u./kg, 90 min
[5] = 10 mg/kg i.v., VAS 0.01 i.u./kg, 120 min
[6] = 10 mg/kg i.v., VAS 0.01 i.u./kg, 180 min
[7] = 10 mg/kg i.v., VAS 0.01 i.u./kg, 240 min
[8] = 10 mg/kg i.v., VAS 0.01 i.u./kg, 300 min
[9] = 10 mg/kg i.v., VAS 0.02 i.u./kg, 30 min
[10] = 10 mg/kg i.v., VAS 0.02 i.u./kg, 60 min
[11] = 10 mg/kg i.v., VAS 0.02 i.u./kg, 90 min
[12] = 10 mg/kg i.v., VAS 0.02 i.u./kg, 120 min
[13] = 10 mg/kg i.v., VAS 0.02 i.u./kg, 180 min
[14] = 10 mg/kg i.v., VAS 0.02 i.u./kg, 240 min
[15] = 10 mg/kg i.v., VAS 0.02 i.u./kg, 300 min

## O=C(Nc1ccc(C(=O)N2Cc3cccn3Cc3ccccc32)cc1)c1ccc(Cl)cc1Cl [Example 6, N-[4-(5H-pyrrolo[2,1-c][1,4]benzodiazepin-10(11H)-ylcarbonyl)phenyl]-2,4-dichlorobenzamide]
Vasopressin V2; 1 mg/kg orally
  Osmolality: 970 mOsm/kg
  Urine Volume: 6 ml/4 hrs
Vasopressin V2; 3 mg/kg orally
  Osmolality: 519 ± 30 mOsm/kg
  Urine Volume: 15 ± 1.6 ml/4 hrs
Vasopressin V2; 10 mg/kg orally
  Osmolality: 346 ± 25 mOsm/kg
  Urine Volume: 20.4 ± 1.1 ml/4 hrs
Vasopressin V2; 30 mg/kg orally
  Osmolality: 616 ± 87 mOsm/kg
  Urine Volume: 17.9 ± 1.3 ml/4 hrs
[1]
  IC50: 3 nM
Vasopressin V1; [2]
  % Inhibition: 85%
  Average Change: 5.5
Vasopressin V1; [3]
  % Inhibition: 79%
  Average Change: 7.5
Vasopressin V1; [4]
  % Inhibition: 63%
  Average Change: 13.5
Vasopressin V1; [5]
  % Inhibition: 59%
  Average Change: 15
Vasopressin V1; [6]
  % Inhibition: 44%
  Average Change: 20.5
Vasopressin V1; [7]
  % Inhibition: 34%
  Average Change: 24
Vasopressin V1; [8]
  % Inhibition: 30%
  Average Change: 25.5
Vasopressin V1; [9]
  % Inhibition: 62%
  Average Change: 16
Vasopressin V1; [10]
  % Inhibition: 45%
  Average Change: 23
Vasopressin V1; [11]
  % Inhibition: 36%
  Average Change: 27
Vasopressin V1; [12]
  % Inhibition: 30%
  Average Change: 29.5
Vasopressin V1; [13]
  % Inhibition: 17%
  Average Change: 35
Vasopressin V1; [14]
  % Inhibition: 15%
  Average Change: 35.5
Vasopressin V1; [15]
  % Inhibition: 14%
  Average Change: 36

## Cc1ccccc1C(=O)Nc1ccc(C(=O)N2Cc3ccnn3Cc3ccccc32)cc1 [Example 210, N-[4-(4H-Pyrazolo[5,1-c][1,4]benzodiazepin-5(10H)-ylcarbonyl)phenyl]-2-methylbenzamide]
Vasopressin V2; 10 mg/kg orally
  Osmolality: 451 mOsm/kg
  Urine Volume: 15.2 ml/4 hrs
[1]
  IC50: 16 nM
Vasopressin V1; 10 mg/kg i.v.
  Max. % Inhibition: 78%
  Time (of max. % inhibition): 90 min

## O=C(Nc1ccc(C(=O)N2Cc3ccc(Cn4ccnc4)n3Cc3ccccc32)cc1)c1ccc(Cl)cc1Cl [Example 582, 2,4-Dichloro-N-[4-[[3-(1H-imidazol-1-ylmethyl)-5H-pyrrolo[2,1-c][1,4]benzodiazepin-10(11H)-yl]carbonyl]phenyl]benzamide]
Vasopressin V2; 10 mg/kg orally
  Osmolality: 604 mOsm/kg
  Urine Volume: 9.5 ml/4 hrs
[1]
  IC50: 14 nM
Vasopressin V1; 10 mg/kg i.v.
  Max. % Inhibition: 75%
  Time (of max. % inhibition): 170 min

## O=C(Nc1ccc(C(=O)N2Cc3cccn3Cc3ccccc32)c(Cl)c1)c1ccc(Cl)cc1Cl [Example 471]
Vasopressin V2; 10 mg/kg orally
  Osmolality: 507 ± 38 mOsm/kg
  Urine Volume: 14.1 ± 1.9 ml/4 hrs
[1]
  IC50: 8.3 nM
Vasopressin V1; 30 mg/kg i.v.
  Max. % Inhibition: 85%
  Time (of max. % inhibition): 90 min

## COC(=O)c1ccc(C(=O)Nc2ccc(C(=O)N3Cc4cccn4Cc4ccccc43)cc2)cc1 [Example 489]
Vasopressin V2; 10 mg/kg orally
  Osmolality: 1194 mOsm/kg
  Urine Volume: 6.1 ml/4 hrs
[1]; 10 μM, rat
  inhibition at 10 µM: 82%
Vasopressin V1; 30 mg/kg i.v.
  Max. % Inhibition: 39%
  Time (of max. % inhibition): 120 min
